Starred links: 1 amine or outer side, 2 acyl side, 3 side chain; linkers in the order of their positions; H or OH if unused. Positions of bridges follow the written chain, without caps; N, C: chain ends. Non-standard residues stand in square brackets, D forms with d. Residues, ends and D or L forms follow the SMILES beside them. *: point of attachment. X15 = NC(=O)[C@H](CCCCN*)NC(=O)COCCOCCNC(=O)COCCOCCNC(=O)CC[C@H](NC(=O)CC[C@H](NC(=O)CCCCCCCCCCCCCCCC(=O)O)C(=O)O)C(=O)O; X14 = NC(=O)[C@H](CCCCN*)NC(=O)COCCOCCNC(=O)COCCOCCNC(=O)CC[C@H](NC(=O)CC[C@H](NC(=O)CCCCCCCCCCCCCCC(=O)O)C(=O)O)C(=O)O; Trp(1-CH2CO) = O=C([C@H](Cc1cn(CC(=O)[*:3])c2ccccc12)N[*:1])[*:2]; Trp(5-OH) = N[C@@H](Cc1c[nH]c2ccc(O)cc12)C(=O)O; Phe(4-COOH) = N[C@@H](Cc1ccc(C(=O)O)cc1)C(=O)O; NMeK = CN[C@@H](CCCCN)C(=O)O; Aib = CC(C)(N)C(=O)O
Biological target: T1, Recombinant human GhR-Fc protein (Homo sapiens, UniProt P10912)
T1 construct: purchased R&D Systems
T1 sequence (P10912 with tags, fused parts or gaps limits assumed): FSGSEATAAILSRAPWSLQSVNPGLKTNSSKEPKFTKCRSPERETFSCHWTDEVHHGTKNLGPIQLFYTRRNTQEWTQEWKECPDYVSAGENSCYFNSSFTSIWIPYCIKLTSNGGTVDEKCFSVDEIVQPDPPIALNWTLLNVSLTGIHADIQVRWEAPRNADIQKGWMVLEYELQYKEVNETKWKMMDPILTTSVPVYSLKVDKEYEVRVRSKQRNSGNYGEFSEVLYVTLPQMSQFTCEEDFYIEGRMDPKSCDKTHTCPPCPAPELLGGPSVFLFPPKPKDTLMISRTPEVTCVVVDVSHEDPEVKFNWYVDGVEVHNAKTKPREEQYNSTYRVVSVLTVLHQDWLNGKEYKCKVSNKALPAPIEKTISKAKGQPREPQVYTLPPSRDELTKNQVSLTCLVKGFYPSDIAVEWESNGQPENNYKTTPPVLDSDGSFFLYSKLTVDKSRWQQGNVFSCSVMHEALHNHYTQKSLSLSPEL
Test: SPR binding assay (Biacore T200, single-cycle kinetics) of peptides against immobilized human GhR-Fc
Details: SPR, hGhR; Table 1 bicyclic peptides; KD calculated from ka and kd; read-out: KD
Summary of the method: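 Human GhR-Fc amine-coupled to a CM5 chip at pH 4.0; running buffer HBS-EP with 1% DMSO. Peptides measured by single-cycle kinetics on Biacore T200, with solvent correction and baseline subtraction. KD calculated from fitted ka and kd.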

`CC(C)[C@@H]1NC(=O)[C@H](C(C)C)NC(=O)[C@@H]2CCCCNC(=O)Cn3cc(c4ccccc43)C[C@H](NC(=O)[C@H](CC(N)=O)NC(=O)[C@H](CO)NC1=O)C(=O)N[C@@H](Cc1ccc(C(=O)O)cc1)C(=O)N[C@@H](CCCCN)C(=O)N[C@@H](Cc1c[nH]c3ccc(O)cc13)C(=O)NC(C)(C)C(=O)N[C@@H](C(C)C)C(=O)N[C@H](C(=O)NCCCC[C@H](NC(=O)COCCOCCNC(=O)COCCOCCNC(=O)CC[C@H](NC(=O)CC[C@H](NC(=O)CCCCCCCCCCCCCCC(=O)O)C(=O)O)C(=O)O)C(N)=O)CSCC(=O)N[C@@H](Cc1ccc(C(=O)O)cc1)C(=O)N2C` [Compound 64] ({CH2CO}-[Phe(4-COOH)][NMeK]VVSN[Trp(1-CH2CO)][Phe(4-COOH)]K[Trp(5-OH)][Aib]VC-X14; lactam 2-7; thioether N-13) showed a Kd of 3.61 nM.

`CC(C)[C@@H]1NC(=O)[C@H](C(C)C)NC(=O)[C@@H]2CCCCNC(=O)Cn3cc(c4ccccc43)C[C@H](NC(=O)[C@H](CC(N)=O)NC(=O)[C@H](CO)NC1=O)C(=O)N[C@@H](Cc1ccc(C(=O)O)cc1)C(=O)N[C@@H](CCCCN)C(=O)N[C@@H](Cc1c[nH]c3ccc(O)cc13)C(=O)NC(C)(C)C(=O)N[C@@H](C(C)C)C(=O)N[C@H](C(=O)NCCCC[C@H](NC(=O)COCCOCCNC(=O)COCCOCCNC(=O)CC[C@H](NC(=O)CC[C@H](NC(=O)CCCCCCCCCCCCCCCC(=O)O)C(=O)O)C(=O)O)C(N)=O)CSCC(=O)N[C@@H](Cc1ccc(C(=O)O)cc1)C(=O)N2C` [Compound 65] ({CH2CO}-[Phe(4-COOH)][NMeK]VVSN[Trp(1-CH2CO)][Phe(4-COOH)]K[Trp(5-OH)][Aib]VC-X15; lactam 2-7; thioether N-13) showed a Kd of 3.33 nM.
